Legend:
Experiment in all cases: relative viability (nuclei count vs DMSO), 5 days (fraction); higher = more cells survive
[1] = compound: CCOc1cc2ncc(C#N)c(Nc3ccc(OCc4ccccn4)c(Cl)c3)c2cc1NC(=O)/C=C/CN(C)C [Neratinib] + CC(C)C[C@H](NC(=O)[C@H](Cc1ccccc1)NC(=O)c1cnccn1)B(O)O [Bortezomib] (partner 0.002 µM)
Outline: (§1)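 After 5 days of treatment, lung cancer cells in 1536-well plates were fixed and stained in a single step (final 0.05% Triton X-100, 1% formaldehyde, 1 ug/ml Hoechst) and their nuclei counted on 4× images. Treatment had been applied by pin tool the day after seeding as one drug alone or as a fixed anchor-drug dose with five library-drug doses (not always all listed) in √10 steps. Relative viability is the nuclei count of treated wells divided by that of vehicle wells, and values are medians of duplicate plates.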

[2] = compound: CCOc1cc2ncc(C#N)c(Nc3ccc(OCc4ccccn4)c(Cl)c3)c2cc1NC(=O)/C=C/CN(C)C [Neratinib] + Cc1cc(Nc2cc(N3CCN(C)CC3)nc(Sc3ccc(NC(=O)C4CC4)cc3)n2)n[nH]1 [Tozasertib] (partner 0.1 µM)
Outline: as §1

[3] = compound: CCOc1cc2ncc(C#N)c(Nc3ccc(OCc4ccccn4)c(Cl)c3)c2cc1NC(=O)/C=C/CN(C)C [Neratinib] + NC(=O)Nc1cc(-c2cccc(F)c2)sc1C(=O)N[C@H]1CCCNC1 [AZD7762] (partner 0.2 µM)
Outline: as §1

[4] = compound: CCOc1cc2ncc(C#N)c(Nc3ccc(OCc4ccccn4)c(Cl)c3)c2cc1NC(=O)/C=C/CN(C)C [Neratinib] + Nc1ncn([C@H]2C[C@H](O)[C@@H](CO)O2)c(=O)n1 [Decitabine] (partner 2 µM)
Outline: as §1

Cell Line: BEN
- relative viability ([1]; first compound 0.01 µM): 0.844
- relative viability ([1]; first compound 0.03162 µM): 1.02
- relative viability ([1]; first compound 0.1 µM): 0.72
- relative viability ([1]; first compound 0.3162 µM): 0.615
- relative viability ([1]; first compound 1 µM): 0.635
- relative viability ([2]; first compound 0.01 µM): 0.559
- relative viability ([2]; first compound 0.03162 µM): 0.576
- relative viability ([2]; first compound 0.1 µM): 0.416
- relative viability ([2]; first compound 0.3162 µM): 0.517
- relative viability ([2]; first compound 1 µM): 0.447
- relative viability ([3]; first compound 0.01 µM): 0.745
- relative viability ([3]; first compound 0.03162 µM): 0.804
- relative viability ([3]; first compound 0.1 µM): 0.628
- relative viability ([3]; first compound 0.3162 µM): 0.571
- relative viability ([3]; first compound 1 µM): 0.596
- relative viability ([4]; first compound 0.01 µM): 0.76
- relative viability ([4]; first compound 0.03162 µM): 0.77
- relative viability ([4]; first compound 0.1 µM): 0.809
- relative viability ([4]; first compound 0.3162 µM): 0.636
- relative viability ([4]; first compound 1 µM): 0.702

Cell Line: PC-3 [JPC-3]
- relative viability ([1]; first compound 0.01 µM): 0.834
- relative viability ([1]; first compound 0.03162 µM): 0.844
- relative viability ([1]; first compound 0.1 µM): 0.82
- relative viability ([1]; first compound 0.3162 µM): 0.802
- relative viability ([1]; first compound 1 µM): 0.365
- relative viability ([2]; first compound 0.01 µM): 0.891
- relative viability ([2]; first compound 0.03162 µM): 0.922
- relative viability ([2]; first compound 0.1 µM): 0.822
- relative viability ([2]; first compound 0.3162 µM): 0.773
- relative viability ([2]; first compound 1 µM): 0.406
- relative viability ([3]; first compound 0.01 µM): 0.798
- relative viability ([3]; first compound 0.03162 µM): 0.863
- relative viability ([3]; first compound 0.1 µM): 0.856
- relative viability ([3]; first compound 0.3162 µM): 0.487
- relative viability ([3]; first compound 1 µM): 0.51
- relative viability ([4]; first compound 0.01 µM): 0.814
- relative viability ([4]; first compound 0.03162 µM): 0.912
- relative viability ([4]; first compound 0.1 µM): 0.764
- relative viability ([4]; first compound 0.3162 µM): 0.547
- relative viability ([4]; first compound 1 µM): 0.606

Cell Line: NCI-H1355
- relative viability ([1]; first compound 0.01 µM): 1.23
- relative viability ([1]; first compound 0.03162 µM): 1.3
- relative viability ([1]; first compound 0.1 µM): 1.16
- relative viability ([1]; first compound 0.3162 µM): 1.02
- relative viability ([1]; first compound 1 µM): 0.752
- relative viability ([2]; first compound 0.01 µM): 0.541
- relative viability ([2]; first compound 0.03162 µM): 0.548
- relative viability ([2]; first compound 0.1 µM): 0.482
- relative viability ([2]; first compound 0.3162 µM): 0.436
- relative viability ([2]; first compound 1 µM): 0.282
- relative viability ([3]; first compound 0.01 µM): 0.904
- relative viability ([3]; first compound 0.03162 µM): 0.754
- relative viability ([3]; first compound 0.1 µM): 0.642
- relative viability ([3]; first compound 0.3162 µM): 0.706
- relative viability ([3]; first compound 1 µM): 0.538
- relative viability ([4]; first compound 0.01 µM): 0.343
- relative viability ([4]; first compound 0.03162 µM): 0.326
- relative viability ([4]; first compound 0.1 µM): 0.337
- relative viability ([4]; first compound 0.3162 µM): 0.372
- relative viability ([4]; first compound 1 µM): 0.341

Cell Line: NCI-H1975
- relative viability ([1]; first compound 0.01 µM): 0.36
- relative viability ([1]; first compound 0.03162 µM): 0.428
- relative viability ([1]; first compound 0.1 µM): 0.423
- relative viability ([1]; first compound 0.3162 µM): 0.252
- relative viability ([1]; first compound 1 µM): 0.191
- relative viability ([2]; first compound 0.01 µM): 0.869
- relative viability ([2]; first compound 0.1 µM): 0.698
- relative viability ([2]; first compound 0.3162 µM): 0.324
- relative viability ([2]; first compound 1 µM): 0.106
- relative viability ([3]; first compound 0.01 µM): 0.855
- relative viability ([3]; first compound 0.03162 µM): 0.847
- relative viability ([3]; first compound 0.1 µM): 0.619
- relative viability ([3]; first compound 0.3162 µM): 0.362
- relative viability ([3]; first compound 1 µM): 0.303
- relative viability ([4]; first compound 0.01 µM): 0.36
- relative viability ([4]; first compound 0.03162 µM): 0.444
- relative viability ([4]; first compound 0.1 µM): 0.351
- relative viability ([4]; first compound 0.3162 µM): 0.346
- relative viability ([4]; first compound 1 µM): 0.19

Cell Line: PC-14
- relative viability ([1]; first compound 0.01 µM): 0.88
- relative viability ([1]; first compound 0.03162 µM): 0.86
- relative viability ([1]; first compound 0.1 µM): 0.741
- relative viability ([1]; first compound 0.3162 µM): 0.918
- relative viability ([1]; first compound 1 µM): 0.158
- relative viability ([2]; first compound 0.01 µM): 0.574
- relative viability ([2]; first compound 0.03162 µM): 0.721
- relative viability ([2]; first compound 0.1 µM): 0.627
- relative viability ([2]; first compound 0.3162 µM): 0.454
- relative viability ([2]; first compound 1 µM): 0.0727
- relative viability ([3]; first compound 0.01 µM): 0.366
- relative viability ([3]; first compound 0.03162 µM): 0.41
- relative viability ([3]; first compound 0.1 µM): 0.36
- relative viability ([3]; first compound 0.3162 µM): 0.242
- relative viability ([3]; first compound 1 µM): 0.134
- relative viability ([4]; first compound 0.01 µM): 0.217
- relative viability ([4]; first compound 0.03162 µM): 0.285
- relative viability ([4]; first compound 0.1 µM): 0.241
- relative viability ([4]; first compound 0.3162 µM): 0.194
- relative viability ([4]; first compound 1 µM): 0.108

Cell Line: HCC-366
- relative viability ([1]; first compound 0.01 µM): 1.16
- relative viability ([1]; first compound 0.03162 µM): 1.13
- relative viability ([1]; first compound 0.3162 µM): 1.01
- relative viability ([1]; first compound 1 µM): 1.07
- relative viability ([2]; first compound 0.01 µM): 0.102
- relative viability ([2]; first compound 0.03162 µM): 0.114
- relative viability ([2]; first compound 0.1 µM): 0.144
- relative viability ([2]; first compound 0.3162 µM): 0.0752
- relative viability ([2]; first compound 1 µM): 0.0557
- relative viability ([3]; first compound 0.03162 µM): 0.307
- relative viability ([3]; first compound 0.1 µM): 0.147
- relative viability ([3]; first compound 0.3162 µM): 0.232
- relative viability ([3]; first compound 1 µM): 0.169
- relative viability ([4]; first compound 0.01 µM): 0.361
- relative viability ([4]; first compound 0.03162 µM): 0.429
- relative viability ([4]; first compound 0.1 µM): 0.33
- relative viability ([4]; first compound 0.3162 µM): 0.368
- relative viability ([4]; first compound 1 µM): 0.471

Cell Line: HOP-62
- relative viability ([1]; first compound 0.01 µM): 0.872
- relative viability ([1]; first compound 0.03162 µM): 0.855
- relative viability ([1]; first compound 0.1 µM): 0.624
- relative viability ([1]; first compound 0.3162 µM): 0.541
- relative viability ([1]; first compound 1 µM): 1
- relative viability ([2]; first compound 0.01 µM): 0.444
- relative viability ([2]; first compound 0.03162 µM): 0.354
- relative viability ([2]; first compound 0.1 µM): 0.33
- relative viability ([2]; first compound 0.3162 µM): 0.369
- relative viability ([2]; first compound 1 µM): 0.32
- relative viability ([3]; first compound 0.01 µM): 0.672
- relative viability ([3]; first compound 0.03162 µM): 0.525
- relative viability ([3]; first compound 0.1 µM): 0.559
- relative viability ([3]; first compound 1 µM): 0.443
- relative viability ([4]; first compound 0.01 µM): 0.215
- relative viability ([4]; first compound 0.03162 µM): 0.222
- relative viability ([4]; first compound 0.1 µM): 0.198
- relative viability ([4]; first compound 1 µM): 0.215

Cell Line: NCI-H596
- relative viability ([1]; first compound 0.03162 µM): 1.32
- relative viability ([1]; first compound 0.1 µM): 1.12
- relative viability ([1]; first compound 0.3162 µM): 1.08
- relative viability ([1]; first compound 1 µM): 0.843
- relative viability ([2]; first compound 0.01 µM): 0.862
- relative viability ([2]; first compound 0.03162 µM): 0.961
- relative viability ([2]; first compound 0.1 µM): 0.736
- relative viability ([2]; first compound 0.3162 µM): 0.857
- relative viability ([2]; first compound 1 µM): 0.601
- relative viability ([3]; first compound 0.01 µM): 1.07
- relative viability ([3]; first compound 0.03162 µM): 1.27
- relative viability ([3]; first compound 0.1 µM): 0.745
- relative viability ([3]; first compound 0.3162 µM): 1.1
- relative viability ([3]; first compound 1 µM): 0.805
- relative viability ([4]; first compound 0.01 µM): 1.88
- relative viability ([4]; first compound 0.03162 µM): 1.1
- relative viability ([4]; first compound 0.1 µM): 1
- relative viability ([4]; first compound 0.3162 µM): 0.986
- relative viability ([4]; first compound 1 µM): 0.863
